In PMC9481151, “Discovery of new symmetrical and asymmetrical nitrile-containing 1,4-dihydropyridine derivatives as dual kinases and P-glycoprotein inhibitors: synthesis, in vitro assays, and in silico studies” (Journal of Enzyme Inhibition and Medicinal Chemistry, 2022):
Several values for one entry are separate records, joined by “and”; a condition that tells them apart may be missing. Equal values may be shown once.

Columns and labels:
CCRF-CEM = assay: NCI single dose (10 µM) SRB screen; format: cell-based, human; details: leukaemia, 48 h
HL-60(TB) = assay: NCI single dose (10 µM) SRB screen; format: cell-based, human; details: leukaemia, 48 h
MOLT-4 = assay: NCI single dose (10 µM) SRB screen; format: cell-based, human; details: leukaemia, 48 h
RPMI-8226 = assay: NCI single dose (10 µM) SRB screen; format: cell-based, human; details: leukaemia, 48 h
SR = assay: NCI single dose (10 µM) SRB screen; format: cell-based, human; details: leukaemia, 48 h
A549/ATCC = assay: NCI single dose (10 µM) SRB screen; format: cell-based, human; details: non-small cell lung cancer, 48 h
NCI-H226 = assay: NCI single dose (10 µM) SRB screen; format: cell-based, human; details: non-small cell lung cancer, 48 h
NCI-H23 = assay: NCI single dose (10 µM) SRB screen; format: cell-based, human; details: non-small cell lung cancer, 48 h
NCI-H322M = assay: NCI single dose (10 µM) SRB screen; format: cell-based; details: non-small cell lung cancer, 48 h
NCI-H460 = assay: NCI single dose (10 µM) SRB screen; format: cell-based, human; details: non-small cell lung cancer, 48 h
NCI-H522 = assay: NCI single dose (10 µM) SRB screen; format: cell-based, human; details: non-small cell lung cancer, 48 h
COLO 205 = assay: NCI single dose (10 µM) SRB screen; format: cell-based, human; details: colon cancer, 48 h
HCT-116 = assay: NCI single dose (10 µM) SRB screen; format: cell-based, human; details: colon cancer, 48 h
HT29 = assay: NCI single dose (10 µM) SRB screen; format: cell-based, human; details: colon cancer, 48 h
KM12 = assay: NCI single dose (10 µM) SRB screen; format: cell-based, human; details: colon cancer, 48 h
SW-620 = assay: NCI single dose (10 µM) SRB screen; format: cell-based, human; details: colon cancer, 48 h
SF-268 = assay: NCI single dose (10 µM) SRB screen; format: cell-based, human; details: CNS cancer, 48 h
SF-295 = assay: NCI single dose (10 µM) SRB screen; format: cell-based, human; details: CNS cancer, 48 h
SF-539 = assay: NCI single dose (10 µM) SRB screen; format: cell-based, human; details: CNS cancer, 48 h
SNB-19 = assay: NCI single dose (10 µM) SRB screen; format: cell-based, human; details: CNS cancer, 48 h
SNB-75 = assay: NCI single dose (10 µM) SRB screen; format: cell-based, human; details: CNS cancer, 48 h
U251 = assay: NCI single dose (10 µM) SRB screen; format: cell-based, human; details: CNS cancer, 48 h
LOX IMVI = assay: NCI single dose (10 µM) SRB screen; format: cell-based, human; details: melanoma, 48 h
MALME-3M = assay: NCI single dose (10 µM) SRB screen; format: cell-based, human; details: melanoma, 48 h
M14 = assay: NCI single dose (10 µM) SRB screen; format: cell-based, human; details: melanoma, 48 h
MDA-MB-435 = assay: NCI single dose (10 µM) SRB screen; format: cell-based, human; details: melanoma, 48 h
SK-MEL-28 = assay: NCI single dose (10 µM) SRB screen; format: cell-based, human; details: melanoma, 48 h
SK-MEL-5 = assay: NCI single dose (10 µM) SRB screen; format: cell-based, human; details: melanoma, 48 h
UACC-257 = assay: NCI single dose (10 µM) SRB screen; format: cell-based, human; details: melanoma, 48 h
IGROV1 = assay: NCI single dose (10 µM) SRB screen; format: cell-based, human; details: ovarian cancer, 48 h
OVCAR-3 = assay: NCI single dose (10 µM) SRB screen; format: cell-based, human; details: ovarian cancer, 48 h
OVCAR-4 = assay: NCI single dose (10 µM) SRB screen; format: cell-based, human; details: ovarian cancer, 48 h
OVCAR-5 = assay: NCI single dose (10 µM) SRB screen; format: cell-based, human; details: ovarian cancer, 48 h
OVCAR-8 = assay: NCI single dose (10 µM) SRB screen; format: cell-based, human; details: ovarian cancer, 48 h
NCI/ADR-RES = assay: NCI single dose (10 µM) SRB screen; format: cell-based, human; details: ovarian cancer, 48 h
SK-OV-3 = assay: NCI single dose (10 µM) SRB screen; format: cell-based, human; details: ovarian cancer, 48 h
786-0 = assay: NCI single dose (10 µM) SRB screen; format: cell-based, human; details: renal cancer, 48 h
A498 = assay: NCI single dose (10 µM) SRB screen; format: cell-based, human; details: renal cancer, 48 h
ACHN = assay: NCI single dose (10 µM) SRB screen; format: cell-based, human; details: renal cancer, 48 h
CAKI-1 = assay: NCI single dose (10 µM) SRB screen; format: cell-based, human; details: renal cancer, 48 h
RXF 393 = assay: NCI single dose (10 µM) SRB screen; format: cell-based, human; details: renal cancer, 48 h
SN12C = assay: NCI single dose (10 µM) SRB screen; format: cell-based, human; details: renal cancer, 48 h
TK-10 = assay: NCI single dose (10 µM) SRB screen; format: cell-based, human; details: renal cancer, 48 h
PC-3 = assay: NCI single dose (10 µM) SRB screen; format: cell-based, human; details: prostate cancer, 48 h
DU-145 = assay: NCI single dose (10 µM) SRB screen; format: cell-based, human; details: prostate cancer, 48 h
MCF7 = assay: NCI single dose (10 µM) SRB screen; format: cell-based, human; details: breast cancer, 48 h
MDA-MB-468 = assay: NCI single dose (10 µM) SRB screen; format: cell-based, human; details: breast cancer, 48 h
NCI 60 cancer cell lines = assay: NCI single dose (10 µM) SRB screen, mean over panel; format: cell-based, human; details: mean over 60 cell lines, 48 h
Staphylococcus aureus = assay: Agar well diffusion method
Bacillus subtilis = assay: Agar well diffusion method
Escherichia coli = assay: Agar well diffusion method
Aspergillus flavus = assay: Agar well diffusion method

SMILES: COC(=O)C1=C(C)NC(C)=C(C(=O)OC(C)C)C1c1cccc(C#N)c1 (racemic) [Compound 2a, (±)-3-Isopropyl 5-methyl 4-(3-cyanophenyl)-2,6-dimethyl-1,4-dihydropyridine-3,5-dicarboxylate]
- GI% CCRF-CEM (CCRF-CEM): – (Only GI% ≥ 10 are shown)
- GI% HL-60(TB) (HL-60(TB)): 23%
- GI% MOLT-4 (MOLT-4): 16%
- GI% RPMI-8226 (RPMI-8226): – (Only GI% ≥ 10 are shown)
- GI% SR (SR): – (Only GI% ≥ 10 are shown)
- GI% A549/ATCC (A549/ATCC): – (Only GI% ≥ 10 are shown)
- GI% NCI-H226 (NCI-H226): – (Only GI% ≥ 10 are shown)
- GI% NCI-H23 (NCI-H23): – (Only GI% ≥ 10 are shown)
- GI% NCI-H322M (NCI-H322M): – (Only GI% ≥ 10 are shown)
- GI% NCI-H460 (NCI-H460): – (Only GI% ≥ 10 are shown)
- GI% NCI-H522 (NCI-H522): 14%
- GI% COLO 205 (COLO 205): – (Only GI% ≥ 10 are shown)
- GI% HCT-116 (HCT-116): – (Only GI% ≥ 10 are shown)
- GI% HT29 (HT29): – (Only GI% ≥ 10 are shown)
- GI% KM12 (KM12): – (Only GI% ≥ 10 are shown)
- GI% SW-620 (SW-620): – (Only GI% ≥ 10 are shown)
- GI% SF-268 (SF-268): – (Only GI% ≥ 10 are shown)
- GI% SF-295 (SF-295): – (Only GI% ≥ 10 are shown)
- GI% SF-539 (SF-539): – (Only GI% ≥ 10 are shown)
- GI% SNB-19 (SNB-19): – (Only GI% ≥ 10 are shown)
- GI% SNB-75 (SNB-75): – (Only GI% ≥ 10 are shown)
- GI% U251 (U251): – (Only GI% ≥ 10 are shown)
- GI% LOX IMVI (LOX IMVI): – (Only GI% ≥ 10 are shown)
- GI% MALME-3M (MALME-3M): – (Only GI% ≥ 10 are shown)
- GI% M14 (M14): – (Only GI% ≥ 10 are shown)
- GI% MDA-MB-435 (MDA-MB-435): – (Only GI% ≥ 10 are shown)
- GI% SK-MEL-28 (SK-MEL-28): – (Only GI% ≥ 10 are shown)
- GI% SK-MEL-5 (SK-MEL-5): – (Only GI% ≥ 10 are shown)
- GI% UACC-257 (UACC-257): – (Only GI% ≥ 10 are shown)
- GI% IGROV1 (IGROV1): – (Only GI% ≥ 10 are shown)
- GI% OVCAR-3 (OVCAR-3): – (Only GI% ≥ 10 are shown)
- GI% OVCAR-4 (OVCAR-4): – (Only GI% ≥ 10 are shown)
- GI% OVCAR-5 (OVCAR-5): – (Only GI% ≥ 10 are shown)
- GI% OVCAR-8 (OVCAR-8): – (Only GI% ≥ 10 are shown)
- GI% NCI/ADR-RES (NCI/ADR-RES): – (Only GI% ≥ 10 are shown)
- GI% SK-OV-3 (SK-OV-3): – (Only GI% ≥ 10 are shown)
- GI% 786-0 (786-0): – (Only GI% ≥ 10 are shown)
- GI% A498 (A498): 11%
- GI% ACHN (ACHN): – (Only GI% ≥ 10 are shown)
- GI% CAKI-1 (CAKI-1): 11%
- GI% RXF 393 (RXF 393): – (Only GI% ≥ 10 are shown)
- GI% SN12C (SN12C): – (Only GI% ≥ 10 are shown)
- GI% TK-10 (TK-10): – (Only GI% ≥ 10 are shown)
- GI% PC-3 (PC-3): 16%
- GI% DU-145 (DU-145): – (Only GI% ≥ 10 are shown)
- GI% MCF7 (MCF7): – (Only GI% ≥ 10 are shown)
- GI% MDA-MB-468 (MDA-MB-468): – (Only GI% ≥ 10 are shown)
- Mean GI% (NCI 60 cancer cell lines): 0%
- zone of inhibition at 1000 µg/mL (Staphylococcus aureus; Staphylococcus aureus, 24 h, read-out: Diameter of inhibition zone, S. aureus): 20 mm
- % activity index, S. aureus (Staphylococcus aureus; relative to ciprofloxacin): 83% and 83.3%
- zone of inhibition at 1000 µg/mL (Bacillus subtilis; Bacillus subtilis, 24 h, read-out: Diameter of inhibition zone, B. subtilis): 17 mm
- % activity index, B. subtilis (Bacillus subtilis; relative to ciprofloxacin): 73% and 73.9%
- zone of inhibition at 1000 µg/mL (Escherichia coli; Escherichia coli, 24 h, read-out: Diameter of inhibition zone, E. coli): 14 mm
- % activity index, E. coli (Escherichia coli; relative to ciprofloxacin): 53.8%
- zone of inhibition at 1000 µg/mL (Aspergillus flavus; Aspergillus flavus, 24 h, read-out: Diameter of inhibition zone, A. flavus): 22 mm
- % activity index, A. flavus (Aspergillus flavus; relative to clotrimazole): 88%
